# Laboratory results as given in publication PMC10068313, “Mechanical forces impair antigen discrimination by reducing differences in T‐cell receptor/peptide–MHC off‐rates” (The EMBO Journal, 2022).
# How the values were obtained:
# [1] = molecular target: Tax 5F peptide (printed ) presented on HLA-A*02:01 (human | HTLV-1); assay: SPR
# [2] = molecular target: Tax 5H peptide presented on HLA-A*02:01 (human | HTLV-1); assay: SPR
# [3] = molecular target: Tax 7Q peptide presented on HLA-A*02:01 (human | HTLV-1); assay: SPR
# [4] = molecular target: Tax 7R peptide presented on HLA-A*02:01 (human | HTLV-1); assay: SPR
# [5] = molecular target: Tax 7T peptide presented on HLA-A*02:01 (human | HTLV-1); assay: SPR
# 1G4 TCR [6] = assay: Laminar flow chamber (LFC) assay, 1G4 TCR-coated beads over pMHC surface; conditions: for force sensitivity parameter xβ, 1G4 TCR: Bell's model fit of off-rates under force (survival at 1 s, corrected for non-specific binding), forces < 120 pN, 6–10 independent experiments combined; for force sensitivity parameter xβ, 1G4 TCR / zero-force off-rate (k0off) from Bell's model, 1G4 TCR: cell-free; for force sensitivity parameter xβ, 1G4 TCR / off-rate / bond type at forces < 20 pN, 1G4 TCR / bond type under force, 1G4 TCR / zero-force off-rate (k0off) from Bell's model, 1G4 TCR: 37°C; for off-rate: survival at 1 s, corrected data; for koff_0: source data of Fig 2E, 1G4 TCR, zero-force off-rate from Bell's model fit; for bond type at forces < 20 pN, 1G4 TCR / bond type under force, 1G4 TCR: LFC; for bond type under force, 1G4 TCR: purified TCR; for zero-force off-rate (k0off) from Bell's model, 1G4 TCR: extrapolated from off-rates under force (survival at 1 s, corrected data)
# Method: In this assay, beads coated with TCR flow over a low density of pMHC while a camera records bead motion (Fig 2A, Movie EV1). […] The duration of TCR/pMHC binding is determined by an automated image analysis algorithm that detects the duration of bead arrests.
# We first confirmed that bead arrests were mediated by single bonds. […] These constraints limit the LFC to a range of flow velocities that translate into pulling forces between ~ 5–120 pN with the upper bound determined, in part, by the binding rate and strength of the specific TCR/pMHC interaction. Finally, survival distributions were generated using the duration of individual beads for each TCR/pMHC pair and corrected by the corresponding distribution of arrests without pMHC for each paired velocity. We focus on the first 5 s of the distribution because on longer timescales measurement of bead arrest is often interrupted by a collision from a second bead.
# Glass slides were rinsed twice in absolute ethanol then washed in a “piranha” solution composed of 70% H2SO4, 15% water and 15% H2O2 for 10 min, then rinsed with 5 litres of deionized water. […] Glass slides were then mounted in a home‐made multi‐channel thermo‐regulated flow chamber device, forming nine independent chambers of 12 mm length and 2 × 0.250 mm^2 section. Each chamber was then filled with a biotinylated pMHC solution in PBS with 0.1% BSA at chosen concentration, using cascade dilution to deposit in our 9‐chambers apparatus 8 different amounts of pMHC plus one chamber as a negative control. Microspheres (Dynal M‐450 tosly‐activated, Thermo Fisher, France) were rinsed three time in a 0.1 M borate solution, then incubated in a 200 μg/ml solution of anti‐6xHis‐tag antibody (Bio‐Rad, MCA1396, clone AD1.1.10, RRID: AB322084) overnight under constant agitation. Microspheres were rinsed three time in PBS/0.1% BSA then incubated prior to each experiment in a 200 μg/ml solution of 6xHis‐tag TCR.
# The device forming nine independent chambers on a common glass slide was thermo‐regulated at 37°C by water circulation, set on an inverted microscope with a 10× lens (Leica, Germany) with a digital CCD camera (UEye, IDS Germany), and chamber entry was connected to the piping. For each independent chamber, the automaton performed cycles, each cycle being an experiment for a given shear flow. The automaton repeated cycles of microspheres agitation, microspheres injection in the chamber, launch of movie recording at 50 frames per seconds with M‐JPEG on‐the‐fly compression, and flow at a given shear for 90 s. Shear value was automatically modified for each new cycle until all chosen shear conditions had been recorded. The chamber was manually disconnected and next chamber was connected, then automaton was re‐launched. Raw data are in the form of movies of microspheres motion. A software suite written in Java as ImageJ plug‐ins retrieves microspheres trajectories and then detects microspheres arrest events using a velocity threshold and record arrests number, arrests duration and distance travelled by sedimented microspheres.
# Binding linear densities are calculated as the ratio of the number of arrests on the distance travelled by microspheres sedimented on the chamber surface. Specific binding densities are calculated by subtracting control linear binding density from assay linear binding density for a given shear condition. Duration of arrests was pooled for experiments sharing identical TCR and pMHC molecules, identical amount of pMHC on the surface and identical shear rate, to build survival curves of the arrests. […] Each TCR‐pMHC bond was measured in 8 to 12 independent experiments.
# 1G4 TCR [7] = conditions: solution affinity of NYE pMHC for 1G4 TCR used in Fig 4F; ref Pettmann et al, 2021; cited from earlier work
# [8] = molecular target: NYE 3A peptide presented on HLA-A*02:01; assay: SPR
# [9] = molecular target: NYE 3Y peptide presented on HLA-A*02:01; assay: SPR
# [10] = molecular target: NYE 4D peptide presented on HLA-A*02:01; assay: SPR
# [11] = molecular target: NYE 4E5E8E peptide presented on HLA-A*02:01; assay: SPR
# [12] = molecular target: NYE 6T peptide presented on HLA-A*02:01; assay: SPR
# [13] = molecular target: NYE 6V peptide presented on HLA-A*02:01; assay: SPR
# 1G4 TCR [14] = test system: 1G4 TCR; set-up: method as in Robert et al, 2012; conditions: ref Robert et al, 2012; cited from earlier work
substance,measurement,setting,value
Soluble A6 TCR (from UniProt P01848 1-93; A0A5B9 1-129),Kd,[1],3 µM
same,Kd,[2],56 µM
same,Kd,[3],37 µM
same,Kd,[4],21 µM
same,Kd,[5],3 µM
SLLEEITEV [NYE 4E5E8E],"force sensitivity parameter xβ, 1G4 TCR",1G4 TCR [6],0.06548 nm
same,off-rate,1G4 TCR [6]; Force 9.5329 pN,0.132 s⁻¹
same,off-rate,1G4 TCR [6]; Force 20.855 pN,0.181 s⁻¹
same,off-rate,1G4 TCR [6]; Force 57.9236 pN,0.5269 s⁻¹
same,off-rate,1G4 TCR [6]; Force 74.4128 pN,0.6611 s⁻¹
same,off-rate,1G4 TCR [6]; Force 98.8295 pN,0.7569 s⁻¹
same,koff_0,1G4 TCR [6],-0.7399
SLLDWITQV [NYE 4D],Kd,1G4 TCR [7],140 µM
same,"force sensitivity parameter xβ, 1G4 TCR",1G4 TCR [6],0.03228 nm
same,off-rate,1G4 TCR [6]; Force 5.76043 pN,0.2871 s⁻¹
same,off-rate,1G4 TCR [6]; Force 10.9915 pN,0.9234 s⁻¹
same,off-rate,1G4 TCR [6]; Force 35.7266 pN,1.088 s⁻¹
same,off-rate,1G4 TCR [6]; Force 49.679 pN,0.8939 s⁻¹
same,off-rate,1G4 TCR [6]; Force 66.9081 pN,1.152 s⁻¹
same,off-rate,1G4 TCR [6]; Force 92.3818 pN,1.23 s⁻¹
same,koff_0,1G4 TCR [6],-0.1852
SLYMWITQV [NYE 3Y],"force sensitivity parameter xβ, 1G4 TCR",1G4 TCR [6],0.06402 nm
same,off-rate,1G4 TCR [6]; Force 4.46758 pN,0.1572 s⁻¹
same,off-rate,1G4 TCR [6]; Force 11.986 pN,0.462 s⁻¹
same,off-rate,1G4 TCR [6]; Force 24.9875 pN,0.9162 s⁻¹
same,off-rate,1G4 TCR [6]; Force 50.6303 pN,1.043 s⁻¹
same,off-rate,1G4 TCR [6]; Force 74.2014 pN,1.215 s⁻¹
SLLMWVTQV [NYE 6V],"force sensitivity parameter xβ, 1G4 TCR",1G4 TCR [6],0.08939 nm
same,off-rate,1G4 TCR [6]; Force 4.03 pN,0.1923 s⁻¹
same,off-rate,1G4 TCR [6]; Force 10.0633 pN,0.2976 s⁻¹
same,off-rate,1G4 TCR [6]; Force 34.1225 pN,0.9589 s⁻¹
same,off-rate,1G4 TCR [6]; Force 53.3785 pN,1.216 s⁻¹
same,off-rate,1G4 TCR [6]; Force 71.3475 pN,1.468 s⁻¹
Soluble 1G4 TCR (from UniProt P01848 1-93; A0A5B9 1-129),Kd,[8],7 µM
same,Kd,[9],55 µM
same,Kd,[10],139 µM
same,Kd,[11],17 µM
same,Kd,[12],161 µM
same,Kd,[13],17 µM
SLLMWTTQV [NYE 6T],Kd,1G4 TCR [7],162 µM
same,"bond type under force at 25°C, 1G4 TCR",1G4 TCR [14],catch bonds
same,"force sensitivity parameter xβ, 1G4 TCR",1G4 TCR [6],0.019 nm
same,"bond type at forces < 20 pN, 1G4 TCR",1G4 TCR [6],slip bonds
same,"bond type under force, 1G4 TCR",1G4 TCR [6],did not display canonical slip or catch bonds
same,"zero-force off-rate (k0off) from Bell's model, 1G4 TCR",1G4 TCR [6],0.87 s⁻¹
SLAMWITQV [NYE 3A],"bond type under force at 25°C, 1G4 TCR",1G4 TCR [14],canonical slip
same,"force sensitivity parameter xβ, 1G4 TCR",1G4 TCR [6],-0.016 nm
same,"bond type at forces < 20 pN, 1G4 TCR",1G4 TCR [6],slip bonds
same,"bond type under force, 1G4 TCR",1G4 TCR [6],did not display canonical slip or catch bonds
same,"zero-force off-rate (k0off) from Bell's model, 1G4 TCR",1G4 TCR [6],0.42 s⁻¹
